Assay results taken from US8247211B2, “Glycopeptide antibiotics” (American Cyanamid Company, priority 2001, dated 2012).

What was measured:
[1] = Anatomic pathology (heart and kidney histopathology) in mice; type: in vivo, CD-1 mice; details: 20 mg/kg intravenously daily for 9 days, microscopic histopathology on day 10
Experimental: 20-day-old CD-1 mice were divided into a vehicle control group (5 mice) and a treatment group (5 mice). Samples of glycopeptide antibiotics were administered at 20 mg/kg intravenously daily for 9 days.
Samples of tissues from necropsied mice were formalin-fixed, paraffin-embedded, sectioned, stained with hematoxylin and eosin, and examined microscopically. Histopathologic findings were recorded. These findings were subjectively graded on a scale corresponding to slight, mild, moderate, marked and severe as compared to untreated controls.

[2] = tested on: Staphylococcus aureus-SMITH (GC 4543); assay: Acute lethal infection in mice (ED50); type: in vivo; details: female CD-1 mice, intraperitoneal challenge, intravenous dose 30 min. after infection, 7 day survival ratios
Outline: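 Female CD-1 mice (20 ± 1-2 g) were infected intraperitoneally with enough bacteria, suspended in Trypticase Soy Broth or hog gastric mucin, to kill untreated controls within 24-48 hr. Compound in saline or 5% dextrose was given intravenously 30 min after infection. ED50 came from pooled 7-day survival over 3 tests.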

Staphylococcus sp. = assay: In vitro antibacterial evaluation: minimum inhibitory concentration (MIC), broth dilution method; type: cell-based; details: for MIC Staphylococcus haemolyticus (GC 4546): strain GC 4546
Outline: (§1)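 NCCLS M7-A2 broth dilution; Muller-Hinton II […]; 5×10^5 CFU/mL; 64-0.06 μg/mL. MIC = lowest concentration with no growth.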

Streptococcus sp. = assay: as above; type: cell-based
Outline: as §1

Escherichia coli = assay: as above; type: cell-based
Outline: as §1

Enterococcus sp. = assay: as above; type: cell-based
Outline: as §1

[3] = broth dilution, 18 hours at 35° C.

CN=C1N(C)CC(CC2NC(=O)C(Cc3ccc(OC4OC(CO)C(OC5OC(CO)C(O)C(O)C5O)C(O)C4O)cc3)NC(=O)C(C(C)c3ccccc3)NC(=O)CNC(=O)C(CO)NC(=O)C(CC3CN(C)C(=NC)N3C3OC(CO)C(O)C(O)C3O)NC2=O)N1C (stereo not shown) [Example 74]
Anatomical Pathology (Day 10), Heart [1]: 0
Anatomical Pathology (Day 10), Kidney [1]: 0
median effective dose (ED50), Staphylococcus aureus-SMITH (GC 4543) [2]: >8

CN=C1N(C)CC(C(O)C2NC(=O)C(Cc3ccc(OC4OC(CO)C(OC5OC6COC7(OC6C(O)C5O)C5CC6CC(C5)CC7C6)C(O)C4O)cc3)NC(=O)C(C(C)c3ccccc3)NC(=O)CNC(=O)C(CO)NC(=O)C(C(O)C3CN(C)C(=NC)N3C3OC(CO)C(O)C(O)C3O)NC2=O)N1C (stereo not shown) [Example 81]
Anatomical Pathology (Day 10), Heart [1]: 0
Anatomical Pathology (Day 10), Kidney [1]: 0
MIC Coagulase Negative Staphylococcus (GC 4547) (Staphylococcus sp.; [3]): >128 µg/mL
MIC Coagulase Negative Staphylococcus (GC 4548) (Staphylococcus sp.; [3]): >128 µg/mL
MIC Coagulase Negative Staphylococcus (GC 4549) (Staphylococcus sp.; [3]): >128 µg/mL
MIC Coagulase Negative Staphylococcus (GC 4551) (Staphylococcus sp.; [3]): >128 µg/mL
MIC Coagulase Negative Staphylococcus (GC 6257) (Staphylococcus sp.; [3]): >128 µg/mL
MIC Staphylococcus aureus (ATCC 29213) (Staphylococcus sp.; [3]): >128 µg/mL
MIC Staphylococcus aureus (GC 1131) (Staphylococcus sp.; [3]): >128 µg/mL
MIC Staphylococcus aureus (GC 3051) (Staphylococcus sp.; [3]): >128 µg/mL
MIC Staphylococcus aureus (GC 3053) (Staphylococcus sp.; [3]): >128 µg/mL
MIC Staphylococcus aureus (GC 4541) (Staphylococcus sp.; [3]): >128 µg/mL
MIC Staphylococcus aureus (GC 4542) (Staphylococcus sp.; [3]): >128 µg/mL
MIC Staphylococcus aureus (GC 4544) (Staphylococcus sp.; [3]): >128 µg/mL
MIC Staphylococcus aureus (GC 4545) (Staphylococcus sp.; [3]): >128 µg/mL
MIC Staphylococcus aureus SMITH (GC 4543) (Staphylococcus sp.; [3]): >128 µg/mL
median effective dose (ED50), Staphylococcus aureus-SMITH (GC 4543) [2]: >8

Tri-N-[(phenylmethoxy)carbonyl]-cyclo[glycyl-β-methylphenylalanyltyrosyl-3-(2-iminoimidazolidin-4-yl)seryl-3-(3-hexopyranosyl-2-iminoimidazolidin-4-yl)serylseryl] [Example 89]
MIC Staphylococcus aureus (ATCC 29213) (Staphylococcus sp.; [3]): 64 µg/mL
MIC Staphylococcus aureus (GC 1131) (Staphylococcus sp.; [3]): 64 µg/mL
MIC Staphylococcus aureus (GC 3051) (Staphylococcus sp.; [3]): 64 µg/mL
MIC Staphylococcus aureus (GC 3053) (Staphylococcus sp.; [3]): 64 µg/mL
MIC Staphylococcus aureus (GC 4541) (Staphylococcus sp.; [3]): 64 µg/mL
MIC Staphylococcus aureus (GC 4542) (Staphylococcus sp.; [3]): 64 µg/mL
MIC Staphylococcus aureus (GC 4544) (Staphylococcus sp.; [3]): 64 µg/mL
MIC Staphylococcus aureus (GC 4545) (Staphylococcus sp.; [3]): 64 µg/mL
MIC Staphylococcus aureus (ATCC 29213) (Staphylococcus sp.; strain ATCC 29213, broth dilution, 18 hours at 35° C.): 64 µg/mL
MIC Staphylococcus aureus (GC 1131) (Staphylococcus sp.; strain GC 1131, broth dilution, 18 hours at 35° C.): 64 µg/mL
MIC Staphylococcus aureus (GC 3051) (Staphylococcus sp.; strain GC 3051, broth dilution, 18 hours at 35° C.): 64 µg/mL
MIC Staphylococcus aureus (GC 3053) (Staphylococcus sp.; strain GC 3053, broth dilution, 18 hours at 35° C.): 64 µg/mL
MIC Staphylococcus aureus (GC 4541) (Staphylococcus sp.; strain GC 4541, broth dilution, 18 hours at 35° C.): 64 µg/mL
MIC Staphylococcus aureus (GC 4542) (Staphylococcus sp.; strain GC 4542, broth dilution, 18 hours at 35° C.): 64 µg/mL
MIC Staphylococcus aureus-SMITH (GC 4543) (Staphylococcus sp.; strain GC 4543, 18 hours at 35° C.): 64 µg/mL
MIC Staphylococcus aureus (GC 4544) (Staphylococcus sp.; strain GC 4544, broth dilution, 18 hours at 35° C.): 64 µg/mL
MIC Staphylococcus aureus (GC 4545) (Staphylococcus sp.; strain GC 4545, broth dilution, 18 hours at 35° C.): 64 µg/mL
MIC Staphylococcus haemolyticus (GC 4546) (Staphylococcus sp.): 32 µg/mL
MIC Staphylococcus haemolyticus (GC 4546) (Staphylococcus sp.; [3]): 32 µg/mL
MIC Coagulase Negative Staphylococcus (GC 4547) (Staphylococcus sp.; strain GC 4547): 32 µg/mL
MIC Coagulase Negative Staphylococcus (GC 4547) (Staphylococcus sp.; strain GC 4547, broth dilution, 18 hours at 35° C.): 32 µg/mL
MIC Coagulase Negative Staphylococcus (GC 4548) (Staphylococcus sp.; strain GC 4548): 64 µg/mL
MIC Coagulase Negative Staphylococcus (GC 4548) (Staphylococcus sp.; strain GC 4548, broth dilution, 18 hours at 35° C.): 64 µg/mL
MIC Coagulase Negative Staphylococcus (GC 4549) (Staphylococcus sp.; strain GC 4549): 64 µg/mL
MIC Coagulase Negative Staphylococcus (GC 4549) (Staphylococcus sp.; strain GC 4549, broth dilution, 18 hours at 35° C.): 64 µg/mL
MIC Coagulase Negative Staphylococcus (GC 4551) (Staphylococcus sp.; strain GC 4551): 64 µg/mL
MIC Coagulase Negative Staphylococcus (GC 4551) (Staphylococcus sp.; strain GC 4551, broth dilution, 18 hours at 35° C.): 64 µg/mL
MIC Coagulase Negative Staphylococcus (GC 6257) (Staphylococcus sp.; strain GC 6257): 32 µg/mL
MIC Coagulase Negative Staphylococcus (GC 6257) (Staphylococcus sp.; strain GC 6257, broth dilution, 18 hours at 35° C.): 32 µg/mL
MIC Staphylococcus aureus-SMITH (GC 4543) (Staphylococcus sp.; strain SMITH GC 4543, broth dilution, 18 hours at 35° C.): 64 µg/mL
MIC Streptococcus agalactiae (GC 4564) (Streptococcus sp.; Streptococcus agalactiae (GC 4564), broth dilution, 18 hours at 35° C.): 32 µg/mL
MIC Streptococcus pneumoniae (ATCC 6301) (Streptococcus sp.; Streptococcus pneumoniae (ATCC 6301), broth dilution, 18 hours at 35° C.): 16 µg/mL
MIC Streptococcus pneumoniae (GC 1894) (Streptococcus sp.; Streptococcus pneumoniae (GC 1894), broth dilution, 18 hours at 35° C.): 4 µg/mL
MIC Streptococcus pneumoniae (GC 4565) (Streptococcus sp.; Streptococcus pneumoniae (GC 4565), broth dilution, 18 hours at 35° C.): 8 µg/mL
MIC Streptococcus pyogenes (GC 4563) (Streptococcus sp.; Streptococcus pyogenes (GC 4563), broth dilution, 18 hours at 35° C.): 32 µg/mL
MIC Streptococcus pneumoniae (ATCC 6301) (Streptococcus sp.; strain ATCC 6301): 16 µg/mL
MIC Streptococcus pneumoniae (GC 1894) (Streptococcus sp.; strain GC 1894): 4 µg/mL
MIC Streptococcus pyogenes (GC 4563) (Streptococcus sp.; strain GC 4563): 32 µg/mL
MIC Streptococcus agalactiae (GC 4564) (Streptococcus sp.; strain GC 4564): 32 µg/mL
MIC Streptococcus pneumoniae (GC 4565) (Streptococcus sp.; strain GC 4565): 8 µg/mL
MIC Escherichia coli (ATCC 25922) (Escherichia coli; strain ATCC 25922): >64 µg/mL
MIC Escherichia coli (GC 4559) (Escherichia coli; strain GC 4559): >64 µg/mL
MIC Escherichia coli (GC 4560) (Escherichia coli; strain GC 4560): 32 µg/mL
MIC Enterococcus avium (GC 4558) (Enterococcus sp.; Enterococcus avium (GC 4558), broth dilution, 18 hours at 35° C.): 32 µg/mL
MIC Enterococcus faecalis (ATCC 29212) (Enterococcus sp.; Enterococcus faecalis (ATCC 29212), broth dilution, 18 hours at 35° C.): 64 µg/mL
MIC Enterococcus faecalis (GC 2242) (Enterococcus sp.; Enterococcus faecalis (GC 2242), broth dilution, 18 hours at 35° C.): 64 µg/mL
MIC Enterococcus faecalis (GC 2691) (Enterococcus sp.; Enterococcus faecalis (GC 2691), broth dilution, 18 hours at 35° C.): 64 µg/mL
MIC Enterococcus faecalis (GC 3059) (Enterococcus sp.; Enterococcus faecalis (GC 3059), broth dilution, 18 hours at 35° C.): 64 µg/mL
MIC Enterococcus faecalis (GC 4552) (Enterococcus sp.; Enterococcus faecalis (GC 4552), broth dilution, 18 hours at 35° C.): 64 µg/mL
MIC Enterococcus faecalis (GC 4553) (Enterococcus sp.; Enterococcus faecalis (GC 4553), broth dilution, 18 hours at 35° C.): 64 µg/mL
MIC Enterococcus faecalis (GC 4554) (Enterococcus sp.; Enterococcus faecalis (GC 4554), broth dilution, 18 hours at 35° C.): 64 µg/mL
MIC Enterococcus faecalis (GC 6189) (Enterococcus sp.; Enterococcus faecalis (GC 6189), broth dilution, 18 hours at 35° C.): 64 µg/mL
MIC Enterococcus faecium (GC 2243) (Enterococcus sp.; Enterococcus faecium (GC 2243), broth dilution, 18 hours at 35° C.): 64 µg/mL
MIC Enterococcus faecium (GC 4556) (Enterococcus sp.; Enterococcus faecium (GC 4556), broth dilution, 18 hours at 35° C.): 64 µg/mL
MIC Enterococcus faecium (GC 4557) (Enterococcus sp.; Enterococcus faecium (GC 4557), broth dilution, 18 hours at 35° C.): 32 µg/mL
MIC Enterococcus faecalis (ATCC 29212) (Enterococcus sp.; strain ATCC 29212): 64 µg/mL
MIC Enterococcus faecalis (GC 2242) (Enterococcus sp.; strain GC 2242): 64 µg/mL
MIC Enterococcus faecium (GC 2243) (Enterococcus sp.; strain GC 2243): 64 µg/mL
MIC Enterococcus faecalis (GC 2691) (Enterococcus sp.; strain GC 2691): 64 µg/mL
MIC Enterococcus faecalis (GC 3059) (Enterococcus sp.; strain GC 3059): 64 µg/mL
MIC Enterococcus faecalis (GC 4552) (Enterococcus sp.; strain GC 4552): 64 µg/mL
MIC Enterococcus faecalis (GC 4553) (Enterococcus sp.; strain GC 4553): 64 µg/mL
MIC Enterococcus faecalis (GC 4554) (Enterococcus sp.; strain GC 4554): 64 µg/mL
MIC Enterococcus faecium (GC 4556) (Enterococcus sp.; strain GC 4556): 64 µg/mL
MIC Enterococcus faecium (GC 4557) (Enterococcus sp.; strain GC 4557): 32 µg/mL
MIC Enterococcus avium (GC 4558) (Enterococcus sp.; strain GC 4558): 32 µg/mL
MIC Enterococcus faecalis (GC 6189) (Enterococcus sp.; strain GC 6189): 64 µg/mL
median effective dose (ED50), Staphylococcus aureus-SMITH (GC 4543) [2]: >8
